According to US20100298141A1, “SUBSTITUTED PYRIDINE N-OXIDE HERBICIDES” (E. I. DU PONT DE NEMOURS AND COMPANY, priority 2007, published 2010):

How the values were obtained:
Experiment in all cases: Test F preemergence test
[1] = test system: prickly sida; format: in vivo, Sida spinosa; conditions: scale 0 to 100
How it was run: (§1)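 Compounds in a non-phytotoxic solvent formulation with surfactant were applied before emergence after sowing, or, for sugarcane, also postemergence. Evaluation was visual, against controls, after 14 to 21 greenhouse days.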

[2] = test system: naked crabgrass; format: in vivo, Digitaria nuda; conditions: scale 0 to 100
How it was run: as §1

[3] = test system: itchgrass; format: in vivo, Rottboellia cochinchinensis; conditions: scale 0 to 100
How it was run: as §1

[4] = test system: barnyardgrass; format: in vivo, Echinochloa crus-galli
How it was run: as §1

[5] = test system: quackgrass; format: in vivo, Elytrigia repens; conditions: scale 0 to 100
How it was run: as §1

[6] = test system: large crabgrass; format: in vivo, Digitaria sanguinalis; conditions: scale 0 to 100
How it was run: as §1

[7] = test system: bermudagrass; format: in vivo, Cynodon dactylon; conditions: scale 0 to 100
How it was run: as §1

[8] = test system: goosegrass; format: in vivo, Eleusine indica; conditions: scale 0 to 100
How it was run: as §1

[9] = test system: kochia; format: in vivo, Kochia scoparia; conditions: scale 0 to 100
How it was run: as §1

[10] = test system: pitted morningglory; format: in vivo, Ipomoea lacunosa; conditions: scale 0 to 100
How it was run: as §1

[11] = test system: common groundsel; format: in vivo, Senecio vulgaris; conditions: scale 0 to 100
How it was run: as §1

[12] = test system: dallisgrass; format: in vivo, Paspalum dilatatum; conditions: scale 0 to 100
How it was run: as §1

[13] = test system: johnsongrass; format: in vivo, Sorghum halepense; conditions: scale 0 to 100
How it was run: as §1

[14] = test system: mustard; format: in vivo, Brassica nigra; conditions: scale 0 to 100
How it was run: as §1

[15] = test system: Italian ryegrass; format: in vivo, Lolium multiflorum; conditions: scale 0 to 100
How it was run: as §1

[16] = test system: Surinam grass; format: in vivo, Brachiaria decumbens; conditions: scale 0 to 100
How it was run: as §1

[17] = test system: common purslane; format: in vivo, Portulaca oleracea; conditions: scale 0 to 100
How it was run: as §1

[18] = test system: guineagrass; format: in vivo, Panicum maximum; conditions: scale 0 to 100
How it was run: as §1

[19] = test system: broadleaf signalgrass; format: in vivo, Brachiaria platyphylla; conditions: scale 0 to 100
How it was run: as §1

[20] = test system: Virginia dayflower; format: in vivo, Commelina virginica; conditions: scale 0 to 100
How it was run: as §1

[21] = test system: common ragweed; format: in vivo, Ambrosia elation; conditions: scale 0 to 100
How it was run: as §1

CCn1nc(C(F)(F)F)c(C[S+]([O-])c2cc(C)cc[n+]2[O-])c1OCC(F)(F)F (racemic) [Compound 66]
Plant response rating, Prickly Sida ([1]; 16 g ai/ha, preemergence): 20 | Prickly Sida plant response rating ([1]; 62 g ai/ha, Preemergence): 75 | Prickly Sida plant response rating ([1]; 125 g ai/ha, preemergence): 98 | Plant response rating, Prickly Sida ([1]; Preemergence, 31 g ai/ha): 20 | Plant response rating, Crabgrass, Naked ([2]; 16 g ai/ha, preemergence): 0 | Crabgrass, Naked plant response rating ([2]; 62 g ai/ha, Preemergence): 100 | Crabgrass, Naked plant response rating ([2]; 125 g ai/ha, preemergence): 100 | Plant response rating, Crabgrass, Naked ([2]; Preemergence, 31 g ai/ha): 25 | Plant response rating, Itchgrass ([3]; 16 g ai/ha, preemergence): 0 | Itchgrass plant response rating ([3]; 62 g ai/ha, Preemergence): 70 | Itchgrass plant response rating ([3]; 125 g ai/ha, preemergence): 90 | Plant response rating, Itchgrass ([3]; Preemergence, 31 g ai/ha): 50 | Plant response rating, Barnyardgrass ([4]; 16 g ai/ha, preemergence, scale 0 to 100 (0 no effect, 100 complete control)): 30 | Barnyardgrass plant response rating ([4]; 62 g ai/ha, Preemergence, scale 0 to 100): 100 | Barnyardgrass plant response rating ([4]; 125 g ai/ha, preemergence, scale 0 to 100): 100 | Plant response rating, Barnyardgrass ([4]; Preemergence, 31 g ai/ha, scale 0 to 100): 75 | Plant response rating, Quackgrass ([5]; 16 g ai/ha, preemergence): 70 | Quackgrass plant response rating ([5]; 62 g ai/ha, Preemergence): 85 | Quackgrass plant response rating ([5]; 125 g ai/ha, preemergence): 100 | Plant response rating, Quackgrass ([5]; Preemergence, 31 g ai/ha): 75 | Plant response rating, Crabgrass, Large ([6]; 16 g ai/ha, preemergence): 0 | Crabgrass, Large plant response rating ([6]; 62 g ai/ha, Preemergence): 80 | Crabgrass, Large plant response rating ([6]; 125 g ai/ha, preemergence): 95 | Plant response rating, Crabgrass, Large ([6]; Preemergence, 31 g ai/ha): 70 | Plant response rating, Bermudagrass ([7]; 16 g ai/ha, preemergence): 40 | Bermudagrass plant response rating ([7]; 62 g ai/ha, Preemergence): 75 | Bermudagrass plant response rating ([7]; 125 g ai/ha, preemergence): 98 | Plant response rating, Bermudagrass ([7]; Preemergence, 31 g ai/ha): 60 | Plant response rating, Goosegrass ([8]; 16 g ai/ha, preemergence): 40 | Goosegrass plant response rating ([8]; 62 g ai/ha, Preemergence): 75 | Goosegrass plant response rating ([8]; 125 g ai/ha, preemergence): 100 | Plant response rating, Goosegrass ([8]; Preemergence, 31 g ai/ha): 60 | Plant response rating, Kochia ([9]; 16 g ai/ha, preemergence): 0 | Kochia plant response rating ([9]; 62 g ai/ha, Preemergence): 15 | Kochia plant response rating ([9]; 125 g ai/ha, preemergence): 90 | Plant response rating, Kochia ([9]; Preemergence, 31 g ai/ha): 0 | Plant response rating, Morningglory ([10]; 16 g ai/ha, preemergence): 0 | Morningglory plant response rating ([10]; 62 g ai/ha, Preemergence): 80 | Morningglory plant response rating ([10]; 125 g ai/ha, preemergence): 100 | Plant response rating, Morningglory ([10]; Preemergence, 31 g ai/ha): 65 | Groundsel plant response rating ([11]; 62 g ai/ha, Preemergence): 80 | Groundsel plant response rating ([11]; 125 g ai/ha, preemergence): 100 | Plant response rating, Groundsel ([11]; Preemergence, 31 g ai/ha): 20 | Plant response rating, Dallisgrass ([12]; 16 g ai/ha, preemergence): 0 | Dallisgrass plant response rating ([12]; 62 g ai/ha, Preemergence): 95 | Dallisgrass plant response rating ([12]; 125 g ai/ha, preemergence): 100 | Plant response rating, Dallisgrass ([12]; Preemergence, 31 g ai/ha): 65 | Plant response rating, Johnsongrass ([13]; 16 g ai/ha, preemergence): 35 | Johnsongrass plant response rating ([13]; 62 g ai/ha, Preemergence): 90 | Johnsongrass plant response rating ([13]; 125 g ai/ha, preemergence): 100 | Plant response rating, Johnsongrass ([13]; Preemergence, 31 g ai/ha): 65 | Plant response rating, Black Mustard ([14]; 16 g ai/ha, preemergence): 50 | Black Mustard plant response rating ([14]; 62 g ai/ha, Preemergence): 100 | Black Mustard plant response rating ([14]; 125 g ai/ha, preemergence): 100 | Plant response rating, Black Mustard ([14]; Preemergence, 31 g ai/ha): 65 | Plant response rating, Ryegrass, Italian ([15]; 16 g ai/ha, preemergence): 0 | Ryegrass, Italian plant response rating ([15]; 125 g ai/ha, preemergence): 70 | Plant response rating, Ryegrass, Italian ([15]; Preemergence, 62 g ai/ha): 60 | Plant response rating, Ryegrass, Italian ([15]; Preemergence, 31 g ai/ha): 50 | Plant response rating, Surinam Grass ([16]; 16 g ai/ha, preemergence): 0 | Surinam Grass plant response rating ([16]; 125 g ai/ha, preemergence): 100 | Plant response rating, Surinam Grass ([16]; Preemergence, 62 g ai/ha): 98 | Plant response rating, Surinam Grass ([16]; Preemergence, 31 g ai/ha): 90 | Plant response rating, Purslane ([17]; 16 g ai/ha, preemergence): 0 | Purslane plant response rating ([17]; 62 g ai/ha, Preemergence): 50 | Purslane plant response rating ([17]; 125 g ai/ha, preemergence): 60 | Plant response rating, Purslane ([17]; Preemergence, 31 g ai/ha): 0 | Plant response rating, Guineagrass ([18]; 16 g ai/ha, preemergence): 20 | Guineagrass plant response rating ([18]; 62 g ai/ha, Preemergence): 100 | Guineagrass plant response rating ([18]; 125 g ai/ha, preemergence): 100 | Plant response rating, Guineagrass ([18]; Preemergence, 31 g ai/ha): 80 | Plant response rating, Signalgrass ([19]; 16 g ai/ha, preemergence): 30 | Signalgrass plant response rating ([19]; 125 g ai/ha, preemergence): 95 | Plant response rating, Signalgrass ([19]; Preemergence, 62 g ai/ha): 65 | Plant response rating, Signalgrass ([19]; Preemergence, 31 g ai/ha): 30 | Plant response rating, Dayflower ([20]; 16 g ai/ha, preemergence): 0 | Plant response rating, Dayflower ([20]; Preemergence, 31 g ai/ha): 0 | Plant response rating, Ragweed ([21]; 16 g ai/ha, preemergence): 0 | Ragweed plant response rating ([21]; 125 g ai/ha, preemergence): 80 | Plant response rating, Ragweed ([21]; Preemergence, 62 g ai/ha): 70 | Plant response rating, Ragweed ([21]; Preemergence, 31 g ai/ha): 70
